Assay results as given in the supplement of paper PMC10627819.

Assays:
Test in all cases: fitness (endpoint OD595 vs no drug) (fraction); higher = more growth
[1] = system: S. aureus DSM 20231
Procedure, shortened: (§1)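 Fitness is computed from the optical density at which cultures reach stationary phase, divided by the robust mean of no-drug control wells. Any value above 1 is set to 1. Cultures started at OD595 0.01 in 384-well plates with TSB, LB Lennox or CY at 37 °C, and OD595 was read every 30 min for 14 h against a first-reading background.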

[2] = system: S. pneumoniae D39V
Procedure, shortened: as §1

[3] = system: B. subtilis 168
Procedure, shortened: as §1
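Further: OD595 on entry to stationary phase over no-drug wells; at most 1.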

CN(C)[C@@H]1C(O)=C(C(N)=O)C(=O)[C@@]2(O)C(O)=C3C(=O)c4c(O)ccc(Cl)c4[C@@](C)(O)[C@H]3C[C@@H]12 [Chlortetracycline] + Cc1onc(-c2ccccc2)c1C(=O)N[C@@H]1C(=O)N2[C@@H]1SC(C)(C)[C@@H]2C(=O)O [Oxacillin]
fitness, one replicate
Conditions	partner 0.0078 µg/mL	partner 0.0155 µg/mL	partner 0.0156 µg/mL	partner 0.031 µg/mL	partner 0.0312 µg/mL	partner 0.0625 µg/mL	partner 0.075 µg/mL	partner 0.15 µg/mL	partner 0.3 µg/mL
[1], first compound 0.006 µg/mL	–	–	0.7	–	0.531	0.435	–	–	–
[3], first compound 0.0475 µg/mL	0.924	0.934	–	0.931	–	–	0.66	0.0283	0.0599
[3], first compound 0.095 µg/mL	0.926	0.814	–	0.674	–	–	0.581	0.0215	0.0316
[3], first compound 0.19 µg/mL	0.62	0.621	–	0.575	–	–	0.377	0.0401	0.0338

Conditions	fitness
[1], first compound 0.012 µg/mL, partner 0.0156 µg/mL	0.452
[1], first compound 0.012 µg/mL, partner 0.0312 µg/mL	0.379
[1], first compound 0.012 µg/mL, partner 0.0625 µg/mL	0.341
[1], first compound 0.024 µg/mL, partner 0.0156 µg/mL	0.204
[1], first compound 0.024 µg/mL, partner 0.0312 µg/mL	0.173
[1], first compound 0.024 µg/mL, partner 0.0625 µg/mL	0.165
[1], first compound 0.048 µg/mL, partner 0.0156 µg/mL	0.0968
[1], first compound 0.048 µg/mL, partner 0.0312 µg/mL	0.0599
[1], first compound 0.048 µg/mL, partner 0.0625 µg/mL	0.0746
[2], first compound 0.012 µg/mL, partner 0.01 µg/mL	0.921
[2], first compound 0.012 µg/mL, partner 0.02 µg/mL	0.878
[2], first compound 0.012 µg/mL, partner 0.04 µg/mL	0.6
[2], first compound 0.024 µg/mL, partner 0.01 µg/mL	0.876
[2], first compound 0.024 µg/mL, partner 0.02 µg/mL	0.853
[2], first compound 0.024 µg/mL, partner 0.04 µg/mL	0.681
[2], first compound 0.048 µg/mL, partner 0.01 µg/mL	0.821
[2], first compound 0.048 µg/mL, partner 0.02 µg/mL	0.739
[2], first compound 0.048 µg/mL, partner 0.04 µg/mL	0.544
[2], first compound 0.375 µg/mL, partner 0.005 µg/mL	0.0823
[2], first compound 0.375 µg/mL, partner 0.01 µg/mL	0.0713
[2], first compound 0.375 µg/mL, partner 0.02 µg/mL	0.0526
[2], first compound 0.75 µg/mL, partner 0.005 µg/mL	0.104
[2], first compound 0.75 µg/mL, partner 0.01 µg/mL	0.0551
[2], first compound 0.75 µg/mL, partner 0.02 µg/mL	0.0755
[2], first compound 1.5 µg/mL, partner 0.005 µg/mL	0.0919
[2], first compound 1.5 µg/mL, partner 0.01 µg/mL	0.0809
[2], first compound 1.5 µg/mL, partner 0.02 µg/mL	0.0469
[3], first compound 0.0475 µg/mL, partner 0.002 µg/mL	0.868
[3], first compound 0.0475 µg/mL, partner 0.004 µg/mL	0.829
[3], first compound 0.0475 µg/mL, partner 0.008 µg/mL	0.832
[3], first compound 0.095 µg/mL, partner 0.002 µg/mL	0.802
[3], first compound 0.095 µg/mL, partner 0.004 µg/mL	0.764
[3], first compound 0.095 µg/mL, partner 0.008 µg/mL	0.726
[3], first compound 0.19 µg/mL, partner 0.002 µg/mL	0.488
[3], first compound 0.19 µg/mL, partner 0.004 µg/mL	0.401
[3], first compound 0.19 µg/mL, partner 0.008 µg/mL	0.416

CN(C)[C@@H]1C(O)=C(C(N)=O)C(=O)[C@@]2(O)C(O)=C3C(=O)c4c(O)ccc(Cl)c4[C@@](C)(O)[C@H]3C[C@@H]12 [Chlortetracycline] + CO/N=C(\C(=O)N[C@@H]1C(=O)N2C(C(=O)O)=C(COC(C)=O)CS[C@H]12)c1csc(N)n1 [Cefotaxime]
fitness, one replicate
Conditions	partner 0.00775 µg/mL	partner 0.0155 µg/mL	partner 0.031 µg/mL	partner 0.039 µg/mL	partner 0.0625 µg/mL	partner 0.078 µg/mL	partner 0.125 µg/mL	partner 0.156 µg/mL	partner 0.25 µg/mL	partner 0.312 µg/mL
[1], first compound 0.006 µg/mL	–	–	–	0.775	–	0.689	–	0.677	–	0.635
[3], first compound 0.0475 µg/mL	0.783	0.597	0.5	–	0.532	–	0.381	–	0.326	–
[3], first compound 0.095 µg/mL	0.703	0.536	0.38	–	0.458	–	0.283	–	0.186	–
[3], first compound 0.19 µg/mL	0.413	0.149	0.0377	–	0.135	–	0.0644	–	0.06	–

Conditions	fitness
[1], first compound 0.012 µg/mL, partner 0.039 µg/mL	0.533
[1], first compound 0.012 µg/mL, partner 0.078 µg/mL	0.608
[1], first compound 0.012 µg/mL, partner 0.156 µg/mL	0.561
[1], first compound 0.012 µg/mL, partner 0.312 µg/mL	0.44
[1], first compound 0.024 µg/mL, partner 0.312 µg/mL	0.271
[1], first compound 0.048 µg/mL, partner 0.039 µg/mL	0.258
[1], first compound 0.048 µg/mL, partner 0.078 µg/mL	0.137
[1], first compound 0.048 µg/mL, partner 0.156 µg/mL	0.125
[1], first compound 0.048 µg/mL, partner 0.312 µg/mL	0.108
[2], first compound 0.012 µg/mL, partner 0.0018 µg/mL	0.88
[2], first compound 0.012 µg/mL, partner 0.0035 µg/mL	0.94
[2], first compound 0.012 µg/mL, partner 0.007 µg/mL	0.885
[2], first compound 0.024 µg/mL, partner 0.0018 µg/mL	0.664
[2], first compound 0.024 µg/mL, partner 0.0035 µg/mL	0.641
[2], first compound 0.024 µg/mL, partner 0.007 µg/mL	0.629
[2], first compound 0.048 µg/mL, partner 0.0018 µg/mL	0.301
[2], first compound 0.048 µg/mL, partner 0.0035 µg/mL	0.251
[2], first compound 0.048 µg/mL, partner 0.007 µg/mL	0.238
[2], first compound 0.375 µg/mL, partner 0.0018 µg/mL	0.0683
[2], first compound 0.375 µg/mL, partner 0.0035 µg/mL	0.0612
[2], first compound 0.375 µg/mL, partner 0.007 µg/mL	0.0585
[2], first compound 0.75 µg/mL, partner 0.0018 µg/mL	0.086
[2], first compound 0.75 µg/mL, partner 0.0035 µg/mL	0.0734
[2], first compound 0.75 µg/mL, partner 0.007 µg/mL	0.0886
[2], first compound 1.5 µg/mL, partner 0.0018 µg/mL	0.0498
[2], first compound 1.5 µg/mL, partner 0.0035 µg/mL	0.0657
[2], first compound 1.5 µg/mL, partner 0.007 µg/mL	0.0651
[3], first compound 0.0475 µg/mL, partner 0.5 µg/mL	0.326
[3], first compound 0.0475 µg/mL, partner 1 µg/mL	0.19
[3], first compound 0.0475 µg/mL, partner 2 µg/mL	0.147
[3], first compound 0.095 µg/mL, partner 0.5 µg/mL	0.199
[3], first compound 0.095 µg/mL, partner 1 µg/mL	0.0513
[3], first compound 0.095 µg/mL, partner 2 µg/mL	0.117
[3], first compound 0.19 µg/mL, partner 0.5 µg/mL	0.129
[3], first compound 0.19 µg/mL, partner 1 µg/mL	0.0806
[3], first compound 0.19 µg/mL, partner 2 µg/mL	0.111
